Results on 22 compounds are retold here after patent US12404289B2 (Gilead Sciences, Inc., priority 2020, dated 2025).

The term EC50 denotes the concentration needed to bring the measured effect to its halfway point.

Common to all, as to assay type: cell-based
For assay [1], the system named is Respiratory syncytial virus recombinant with luciferase (RSV-Luc5). In words: microbe, parasite or virus in culture. To be noted: Table 3.
Assay [2] concerns SARS-CoV-2. In words: SARS-CoV-2 antiviral assay (A549-hACE2, Nano luciferase). Particulars: A549-hACE2 cells, SARS-CoV2-Nano, MOI 0.025, 48 h, Table 4, read-out: EC50 SARS CoV2.
The test system of assay [3] is Respiratory syncytial virus (RSV) strain A2. In words: Hep-2 RSV2 384-well assay (EC50-HEP2-384). Particulars: HEp-2 cells, RSV A2, MOI=4, 4 days.
In assay [4] the test system is Recombinant respiratory syncytial virus expressing the firefly luciferase protein (RSV-Fluc). In words: microbe, parasite or virus in culture. To be noted: Table 4.
For assay [5], the system named is Respiratory syncytial virus (RSV) strain A2. Nature of the assay: RSV antiviral assay (HEp-2, 96 well). To be noted: read-out: EC50 RSV HEP2 96; HEp-2 cells, RSV A2, MOI=4, 4 days, 96 well; Table 3.
The mark [6] stands for this setting: read-out: EC50 RSVFluc-Hep2 384, HEp-2 cells, RSV-Luc5, MOI=0.5, 3 days, 384 well.
Where [7] appears, read: Severe acute respiratory syndrome coronavirus 2, 48 h.
Where [8] appears, read: human respiratory syncytial virus, HEp-2, 72 h, read-out: EC50 RSVFluc-Hep2 384, HEp-2 cells, RSV-Luc5, MOI=0.5, 3 days, 384 well.
[9] abbreviates: read-out: EC50 RSVFluc NHBE 96, NHBE cells, RSV-Fluc, MOI of 0.1, three days, 96 well.
The mark [10] stands for this setting: human respiratory syncytial virus, NHBE, 72 h, read-out: EC50 RSVFluc NHBE 96, NHBE cells, RSV-Fluc, MOI of 0.1, three days, 96 well.
Setting [11] is: human respiratory syncytial virus, HEp-2, 96 h, Table 3.

The structures appear in SMILES notation. Where two headings read alike, the source gives them in different places.

In the case of `CCC(CC)COC(=O)[C@H](C)NP(=O)(OC[C@H]1O[C@@](C#N)(c2ccc3c(N)ncnn23)[C@H](OC(=O)C(C)C)[C@@H]1OC(=O)C(C)C)Oc1ccc(C(C)(C)C)c2ccccc12` (single isomer, unassigned) [Example 173b], the EC50 in assay [1] (setting [6]) is 765 nM.
Regarding `CCC(CC)COC(=O)[C@H](C)NP(=O)(OC[C@H]1O[C@@](C#N)(c2ccc3c(N)ncnn23)[C@H](OC(=O)C(C)C)[C@@H]1OC(=O)C(C)C)Oc1ccc(C(C)(C)C)c2ccccc12` (single isomer, unassigned) [Example 173a], the EC50 in assay [2] (setting [7]) worked out at 10000 nM; in assay [1] (setting [8]) it was 822 nM.
With `CCOC(=O)[C@H](C)NP(=O)(OC[C@H]1O[C@@](C#N)(c2ccc3c(N)ncnn23)[C@H](OC(C)=O)[C@@H]1OC(C)=O)Oc1ccc(C23CC(C2)C3)cc1` (single isomer, unassigned) [Example 42b], the 50% effective concentration (EC50) in assay [2] was determined as 51.3 nM; in assay [3] (Table 3), 68.8 nM; in assay [4] (setting [9]), 8 nM.
As to `CCC(CC)COC(=O)[C@H](C)NP(=O)(OC[C@H]1O[C@@](C#N)(c2ccc3c(N)ncnn23)[C@H](OC(=O)C(C)C)[C@@H]1OC(=O)C(C)C)Oc1ccc(C(C)(C)C)c2ccccc12` (stereo partly drawn) [Example 173, (2R,3R,4R,5R)-2-(4-aminopyrrolo[2,1-f][1,2,4]triazin-7-yl)-5-(((((4-(tert-butyl)naphthalen-1-yl)oxy)(((S)-1-(2-ethylbutoxy)-1-oxopropan-2-yl)amino)phosphoryl)oxy)methyl)-2-cyanotetrahydrofuran-3,4-diyl bis(2-methylpropanoate)], the EC50 in assay [1] (setting [8]) was determined as 798 nM.
With `CC(C)C(=O)O[C@H]1[C@@H](OC(=O)C(C)C)[C@](C#N)(c2ccc3c(N)ncnn23)O[C@@H]1COP(=O)(N[C@@H](C)C(=O)OC1CCC1)Oc1ccccc1` (single isomer, unassigned) [Example 21b], the values for the EC50 in assay [2], in assay [3] (Table 1) and in assay [4] (setting [9]) were 191 nM, 34.7 nM and 33.1 nM, respectively.
Regarding `CCC(C)(C)CCOC(=O)[C@H](C)NP(=O)(OC[C@H]1O[C@@](C#N)(c2ccc3c(N)ncnn23)[C@H](OC(C)=O)[C@@H]1OC(C)=O)Oc1ccccc1` (stereo partly drawn) [Example 106b, (2R,3R,4R,5R)-2-(4-aminopyrrolo[2,1-f][1,2,4]triazin-7-yl)-2-cyano-5-((((((S)-1-((3,3-dimethylpentyl)oxy)-1-oxopropan-2-yl)amino)(phenoxy)phosphoryl)oxy)methyl)tetrahydrofuran-3,4-diyl Diacetate], the EC50 was 97.8 nM in assay [2], 34.2 nM in assay [3] (Table 3) and 12.2 nM in assay [4] (setting [10]).
`CCC(=O)O[C@H]1[C@@H](OC(=O)CC)[C@](C#N)(c2ccc3c(N)ncnn23)O[C@@H]1COP(=O)(N[C@@H](C)C(=O)OC1CCC1)Oc1ccc(C(C)(C)C)cc1` (single isomer, unassigned) [Example 32b]: the EC50 was 59.7 nM in assay [2], 30 nM in assay [3] (Table 3) and 10.7 nM in assay [4] (setting [9]).
For the compound `C[C@H](NP(=O)(OC[C@H]1O[C@@](C#N)(c2ccc3c(N)ncnn23)[C@H](O)[C@@H]1O)Oc1ccc(Cl)cc1)C(=O)OC1CCCCCCC1` (single isomer, unassigned) [Example 174a], the EC50 in assay [1] (setting [6]) stood at 7.09 nM.
In the case of `CC(=O)O[C@H]1[C@@H](OC(C)=O)[C@](C#N)(c2ccc3c(N)ncnn23)O[C@@H]1COP(=O)(N[C@@H](C)C(=O)OC1CCC1)Oc1ccc(C(C)(C)C)cc1` (single isomer, unassigned) [Example 33b], the EC50 in assay [2] stood at 231 nM; in assay [3] (Table 3), 27.2 nM; in assay [4] (setting [9]), 12.2 nM.
`CCOC(=O)[C@H](C)NP(=O)(OC[C@H]1O[C@@](C#N)(c2ccc3c(N)ncnn23)[C@H](OC(=O)C(C)C)[C@@H]1OC(=O)C(C)C)Oc1ccc(C(C)(C)C)cc1` (single isomer, unassigned) [Example 18a]: the EC50 in assay [2] (setting [7]) worked out at 312 nM; in assay [3] (human respiratory syncytial virus, HEp-2, 96 h, Table 1), 65.4 nM; in assay [4] (setting [10]) it was 22.2 nM.
Regarding `CCC(=O)O[C@H]1[C@@H](OC(=O)CC)[C@](C#N)(c2ccc3c(N)ncnn23)O[C@@H]1COP(=O)(N[C@@H](C)C(=O)OC1CCC1)Oc1ccc(C(C)(C)C)cc1` (single isomer, unassigned) [Example 32a], the EC50 in assay [2] worked out at 157 nM; in assay [3] (setting [11]) it was 25.4 nM; in assay [4] (setting [10]), 16.7 nM.
Take `COC(C)(C)COC(=O)[C@H](C)NP(=O)(OC[C@H]1O[C@@](C#N)(c2ccc3c(N)ncnn23)[C@H](OC(=O)C(C)C)[C@@H]1OC(=O)C(C)C)Oc1cccc2ccccc12` (stereo partly drawn) [Example 133, (2R,3R,4R,5R)-2-(4-aminopyrrolo[2,1-f][1,2,4]triazin-7-yl)-2-cyano-5-((((((S)-1-(2-methoxy-2-methylpropoxy)-1-oxopropan-2-yl)amino)(naphthalen-1-yloxy)phosphoryl)oxy)methyl)tetrahydrofuran-3,4-diyl bis(2-methylpropanoate)]: the EC50 was determined as 36.9 nM in assay [2] (setting [7]), 33.6 nM in assay [3] (setting [11]) and 13.8 nM in assay [4] (setting [10]).
For the compound `CCOC(=O)[C@H](C)NP(=O)(OC[C@H]1O[C@@](C#N)(c2ccc3c(N)ncnn23)[C@H](OC(C)=O)[C@@H]1OC(C)=O)Oc1ccc(C23CC(C2)C3)cc1` (single isomer, unassigned) [Example 42a], the results for the EC50 in assay [2], in assay [3] (setting [11]) and in assay [4] (setting [10]) were 121 nM, 68.3 nM and 9.56 nM, respectively.
For the compound `CCC(=O)O[C@H]1[C@@H](OC(=O)CC)[C@](C#N)(c2ccc3c(N)ncnn23)O[C@@H]1COP(=O)(N[C@@H](C)C(=O)OC1CC2(CCC2)C1)Oc1cccc2ccccc12` (single isomer, unassigned) [Example 87b], the half-maximal effective concentration (EC50) is 8.3 nM in assay [5], 16.3 nM in assay [2], 44.9 nM in assay [3] (setting [11]) and 7.36 nM in assay [4] (setting [10]).
For the compound `C[C@H](NP(=O)(OC[C@H]1O[C@@](C#N)(c2ccc3c(=N)n(COP(=O)(O)OCc4ccccc4)cnn23)[C@H](O)[C@@H]1O)Oc1cccc2ccccc12)C(=O)OC1CC2(CCC2)C1` (stereo partly drawn) [Example 176, spiro[3.3]heptan-2-yl ((((2R,3S,4R,5R)-5-(3-((((benzyloxy)(hydroxy)phosphoryl)oxy)methyl)-4-imino-3,4-dihydropyrrolo[2,1-f][1,2,4]triazin-7-yl)-5-cyano-3,4-dihydroxytetrahydrofuran-2-yl)methoxy)(naphthalen-1-yloxy)phosphoryl)-L-alaninate], the EC50 in assay [1] (setting [8]) came to 153 nM.
On the same count and under the same terms, with `CCC(CC)COC(=O)[C@H](C)NP(=O)(OC[C@H]1O[C@@](C#N)(c2ccc3c(N)ncnn23)[C@H](O)[C@@H]1O)Oc1ccc(C(C)(C)C)c2ccccc12` (stereo partly drawn) [Example 170, 2-ethylbutyl ((((2R,3S,4R,5R)-5-(4-aminopyrrolo[2,1-f][1,2,4]triazin-7-yl)-5-cyano-3,4-dihydroxytetrahydrofuran-2-yl)methoxy)((4-(tert-butyl)naphthalen-1-yl)oxy)phosphoryl)-L-alaninate] the figure was 1010 nM.
`C[C@H](NP(=O)(OC[C@H]1O[C@@](C#N)(c2ccc3c(N)ncnn23)[C@H](O)[C@@H]1O)Oc1ccc(C(C)(C)C)cc1)C(=O)OC1CCC1` (single isomer, unassigned) [Example 31a]: the EC50 in assay [2] (setting [7]) was 92.3 nM; in assay [3] (setting [11]), 29.2 nM; in assay [4] (setting [10]), 6.33 nM.
On to `CC(=O)O[C@H]1[C@@H](OC(C)=O)[C@](C#N)(c2ccc3c(N)ncnn23)O[C@@H]1COP(=O)(N[C@@H](C)C(=O)OC1CCC1)Oc1ccc(C(C)(C)C)cc1` (single isomer, unassigned) [Example 33a], for which the EC50 in assay [2] (setting [7]) is 134 nM; in assay [3] (setting [11]), 22.7 nM; in assay [4] (setting [10]), 9.06 nM.
Consider `CCOC(=O)[C@H](C)NP(=O)(OC[C@H]1O[C@@](C#N)(c2ccc3c(N)ncnn23)[C@H](OC(=O)C(C)C)[C@@H]1OC(=O)C(C)C)Oc1ccc(C(C)(C)C)cc1` (single isomer, unassigned) [Example 18b], for which the EC50 in assay [2] worked out at 332 nM; in assay [3] (Table 1), 75 nM; in assay [4] (setting [9]) it was 15.1 nM.
Turning to `CC(C)C(=O)O[C@H]1[C@@H](OC(=O)C(C)C)[C@](C#N)(c2ccc3c(N)ncnn23)O[C@@H]1COP(=O)(N[C@@H](C)C(=O)OCC1CC1)Oc1ccc(C(C)(C)C)cc1` (stereo partly drawn) [Example 104a, (2R,3R,4R,5R)-2-(4-aminopyrrolo[2,1-f][1,2,4]triazin-7-yl)-5-((((4-(tert-butyl)phenoxy)(((S)-1-(cyclopropylmethoxy)-1-oxopropan-2-yl)amino)phosphoryl)oxy)methyl)-2-cyanotetrahydrofuran-3,4-diyl bis(2-methylpropanoate)], the EC50 in assay [2] (setting [7]) turned out to be 234 nM; in assay [3] (setting [11]) it was 39 nM; in assay [4] (setting [10]), 10.8 nM.
Regarding `CCC(=O)O[C@H]1[C@@H](OC(=O)CC)[C@](C#N)(c2ccc3c(N)ncnn23)O[C@@H]1COP(=O)(N[C@@H](C)C(=O)OCC(CC)CC)Oc1ccc(C(C)(C)C)c2ccccc12` (single isomer, unassigned) [Example 172a], in assay [1] (setting [8]), the EC50 amounted to 750 nM.
Consider `C[C@H](NP(=O)(OC[C@H]1O[C@@](C#N)(c2ccc3c(N)ncnn23)[C@H](O)[C@@H]1O)Oc1ccc(Cl)cc1)C(=O)OC1CCCCCCC1` (single isomer, unassigned) [Example 174b], for which the EC50 in assay [1] (setting [6]) was determined as 62.8 nM.
